The values that follow come from paper doi:10.1101/2020.10.22.350827v1 (biorxiv, 2020).

Changes are numbered by the printed parent chain.

The target in assay [1] is T1, Nluc-A1R (adenosine A1 receptor) (Homo sapiens, UniProt P30542, I175A).
T1 sequence (P30542 1-326 I175A): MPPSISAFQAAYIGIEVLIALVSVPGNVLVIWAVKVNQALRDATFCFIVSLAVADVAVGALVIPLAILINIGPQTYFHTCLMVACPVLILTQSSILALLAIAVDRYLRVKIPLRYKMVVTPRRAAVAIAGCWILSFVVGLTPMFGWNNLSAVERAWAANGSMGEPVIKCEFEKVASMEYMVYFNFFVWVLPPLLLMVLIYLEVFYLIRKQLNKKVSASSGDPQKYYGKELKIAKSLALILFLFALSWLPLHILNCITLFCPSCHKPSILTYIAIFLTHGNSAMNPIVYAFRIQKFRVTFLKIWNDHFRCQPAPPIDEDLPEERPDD
The assay can be described thus: NanoBRET competition binding, live HEK […] cells. In kind it is cell-based. On the technique in general: Bioluminescence resonance energy transfer reports proximity on the nanometre scale.

The target of assay [2] is T2, Nluc-A1R (adenosine A1 receptor) (Homo sapiens, UniProt P30542).
T2 sequence (P30542 1-326): T1 sequence (P30542 1-326 I175A) with A175I
The assay can be described thus: NanoBRET competition binding, live HEK […] cells. In kind it is cell-based.

Assay [3] has as its target T3, Nluc-A1R (adenosine A1 receptor) S267A (Homo sapiens, UniProt P30542, S267A).
T3 sequence (P30542 1-326 S267A): T1 sequence (P30542 1-326 I175A) with A175I, S267A
The assay can be described thus: cell-based. Further details: species or system HEK 293.

In assay [4] the target is T4, Nluc-A1R (adenosine A1 receptor) Q9A (Homo sapiens, UniProt P30542, Q9A).
T4 sequence (P30542 1-326 Q9A): T1 sequence (P30542 1-326 I175A) with Q9A, A175I
Briefly: cell-based. Also on record: species or system HEK 293.

For assay [5], the target named is T5, Nluc-A1R (adenosine A1 receptor) N70A (Homo sapiens, UniProt P30542, N70A).
T5 sequence (P30542 1-326 N70A): T1 sequence (P30542 1-326 I175A) with N70A, A175I
Briefly: cell-based. Further details: species or system HEK 293.

Assay [6] deals with T6, Nluc-A1R (adenosine A1 receptor) K265A (Homo sapiens, UniProt P30542, K265A).
T6 sequence (P30542 1-326 K265A): T1 sequence (P30542 1-326 I175A) with A175I, K265A
Briefly: cell-based. Also on record: species or system HEK 293.

Assay [7] deals with T7, Nluc-A1R (adenosine A1 receptor) L253F (Homo sapiens, UniProt P30542, L253F).
T7 sequence (P30542 1-326 L253F): T1 sequence (P30542 1-326 I175A) with A175I, L253F
The assay can be described thus: cell-based. Also on record: species or system HEK 293.

In the case of `OC[C@H]1O[C@@H](n2cnc3c(N[C@@H]4CCC[C@H]4O)ncnc32)[C@H](O)[C@@H]1O` [compound 6, HOCPA], the Ki – broadly, a dissociation constant, usually derived from enzyme kinetics or from competition with a known ligand – in assay [1] is 2190 nM; in assay [2], 427 nM; in assay [3] it was 1020 nM; in assay [4], 1950 nM; in assay [5] it was 891 nM; in assay [6] it was 977 nM. In assay [7], this compound showed a Ki of 1620 nM.
